Series [1] is described as follows: Plasma pharmacokinetics, Cycle 1. In kind it is in vivo, patients.
The conditions of series [2]: cited from earlier work.
In series [3] the test system is NRAS- and BRAF-mutant melanoma. The settings on record: single agent, cited from earlier work.
For series [4] the following is noted: cited from earlier work. The source holds these as a separate data set.
Series [5] concerns ovarian cancer. The settings on record: single agent, irrespective of BRAF or KRAS status; cited from earlier work.

Structures are written as SMILES. Like-named read-outs stand apart in the source and are kept apart here. Bounds are passed on as bounds.

Usually AUC stands for concentration integrated over time. Usually Cmax stands for the maximum level reached in the sampled fluid or tissue.

Compound `Cn1cnc2c(F)c(Nc3ccc(Br)cc3F)c(C(=O)NOCCO)cc21` [binimetinib] showed an exposure (AUC) in series [1] (human, plasma, oral, mean AUCtau, binimetinib 45 mg b.i.d. and buparlisib 80 mg q.d.) of 2670 ng·h/mL. Besides, in series [1] (in vivo), the “Effect of buparlisib on PK of binimetinib” value is listed as “not altered by buparlisib”. Also, in series [2], the “MTD, single agent” value is on record as 60 mg b.i.d. Further, the “mean AUCtau” value in series [2] (single-agent phase I study, same dosing schedule) is on record as 1,740 ng•hour/mL. Moreover, the figures for the Objective response rate in series [3] (BRAF-mutant melanoma) and in series [3] (NRAS-mutant melanoma) were 6% and 11%, respectively.
For `Nc1cc(C(F)(F)F)c(-c2cc(N3CCOCC3)nc(N3CCOCC3)n2)cn1` [buparlisib], the area under the curve (AUC) in series [1] (human, plasma, oral, AUCtau, present study, combination at RP2D) turned out to be 11700 ng·h/mL. The maximum concentration (Cmax) in series [1] (human, plasma, oral, Cmax, present study, combination at RP2D) came out at 764 ng/mL. The “Reduction of Cmax and AUCtau when combined with binimetinib” value in series [1] (in many patients, versus single-agent data) is listed as more than 50%. In addition, the “MTD, single agent” value in series [4] is reported as 100 mg once daily (q.d.). Further, in series [4] (single-agent study), the AUCtau is 15,413 ng•hour/mL and the Cmax was 1,098 ng/mL.
As for `Cn1cnc2c(F)c(Nc3ccc(Br)cc3Cl)c(C(=O)NOCCO)cc21` [selumetinib], the Response rate in series [5] is 15%.

(Values after article PMC6964137 (The Oncologist, 2019).)
